# Experimental data from patent publication US20230295212A1 (ROME Therapeutics, Inc., priority 2022, published 2023).
# Columns and labels:
# [1] = test system: interferon-stimulated gene (ISG) response; assay: In vivo decitabine challenge model in C57BL/6 mice (ISG response); design: species or system mouse; conditions: decitabine i.p. 5 mg/kg
# Description: Exemplary compounds were tested for ability to alter the interferon-stimulated gene (ISG) response in C57BL/6 mice treated with decitabine. Assay procedures and results are described below. Twenty 9-11 week old C57BL/6 mice were acclimated to the lab for at least 5 days. Compound 23 was prepared in a 0.5% methylcellulose solution for p.o. administration. Decitabine (Sigma-Aldrich) was dissolved in sterile PBS (pH 7.4) and dosed within 30 minutes of preparation of the solution. Doses of both the compound and decitabine were administered once a day, every day from Day 0 to Day 4. On Day 0, mice were split into five groups of five mice and given their first dose of decitabine (i.p., 5 mg/kg) and compound 23. Dosing groups were: Decitabine and compound 23 were administered daily from Day 0 to Day 4. All mice were euthanized 1 hour after the last dose administration on Day 4. Spleens, liver, and terminal colon were collected, along with plasma from each animal. The fold changes in interferon-stimulated gene (ISG) expression was calculated by first normalizing to GAPDH gene using the Delta CT method. The CT (gene of interest)—CT (reference gene) was calculated to generate a delta CT for all samples. The fold change was then calculated by taking the Log2(Delta CT(control)—Delta CT (experimental). The control in this example was the PBS control animal group. The Taqman duplex assay was used to determine levels of GAPDH v. IFIT2. Twenty 9-11 week old C57BL/6 mice were acclimated to the lab for at least 5 days. Compound 2 was prepared in 20% PEG400 in PBS (final pH 4.5) for p.o. administration. Decitabine (Sigma) was dissolved in sterile PBS (pH 7.4) and dosed within 30 minutes of preparation of the solution. Doses of both Compound 2 and decitabine were administered once a day. On Day 0, mice were split into five groups of five mice and given their first dose of decitabine and Compound 2. […] The fold changes in interferon-stimulated gene (ISG, specifically IRF7 and MX1) expression was calculated by first normalizing to GAPDH gene using the Delta CT method. […]
# THP1 Dual TREX1 KO cells = assay: THP1 TREX1 KO inhibition assay, combination dosing (stampidine and Compound 2); type: cell-based; conditions: combination of stampidine and Compound 2; k>0 denotes synergy
# Description: Exemplary compounds were tested to determine the effect of combined dosing of two compounds on the type 1 interferon response in THP1 Dual TREX1 KO cells treated with 5-aza-2′-deoxycytidine. Assay procedures and results are described below.
# THP1 Dual TREX1 KO cells were purchased from InvivoGen. The THP1-Dual™ KO-TREX1 cells were cultured in RPMI 1640, 10% heat-inactivated fetal bovine serum, 25 mM HEPES, 10 μg/mL blasticidin, and 100 μg/mL Zeocin. THP1-Dual™ KO-TREX1 cells were treated with a dose titration of test compound in the presence of 1 μM 5-aza-2′-deoxycytidine (Sigma, cat #189825). Type 1 Interferon and cell viability were assessed after five days of treatment.
# Stock solution of test compounds stampidine and Compound 2 were prepared in DMSO followed by a three-fold dilution in DMSO. […]
# THP1-Dual™ KO-TREX1 cells were treated with 1 μM 5-aza-2′-deoxycytidine. […] Luminescence was detected on a plate reader according to manufacturer's instructions. […]
# The remaining cells were assessed for cell viability by adding 30 μl of CellTiter-Glo (Promega, G9683) solution to each well, and placed on a shaker for 10 minutes at room temperature. Luminescence was detected on a plate reader, according to manufacturer's instructions. […]
compound,measurement,setting,value
"Nc1ccn([C@H]2C[C@H](O)[C@](CO)(CCl)O2)c(=O)n1 [Compound 2, 4-amino-1-((2R,4S,5R)-5-(chloromethyl)-4-hydroxy-5-(hydroxymethyl)tetrahydrofuran-2-yl)pyrimidin-2(1H)-one]",change in interferon-stimulated gene (ISG) response (FIG. 2A),"[1]; compound p.o. 0.6, 2.0, 6.0 mg/kg daily Day 0 to Day 4, IFIT2 v. GAPDH",change in ISG response
same,change in interferon-stimulated gene (ISG) response (FIGS. 2B and 2C),"[1]; compound p.o. 1, 10, 100 mg/kg daily, kidneys, IRF7 and MX1",change in the ISG response
same,best BRAID fit k,THP1 Dual TREX1 KO cells,2.00 (0.583-3.64)
